Like-named read-outs stand apart in the source and are kept apart here.

The experiment deals with KM12 cells. Kind of experiment: Proliferation of KM12 cells (CellTiter-Glo). It is filed as cell-based, human. The text has this:
KM12 is a human colon cancer cell line in which NTRK1 is highly expressed, and gene fusion occurs with TPM3 to form TPM3-NTRK1. • [Test method]: Promega's CellTiter-Glo® Luminescent Cell Viability Assay kit was used to evaluate the inhibitory activity of the compounds on the proliferation of KM12 cells. • [Instrument]: Spectramax M3 multifunctional microplate reader from Molecular Devices. • [Test materials]: KM12 cell line (ATCC, item number CRL-12496), 96-well transparent flat-bottomed black-walled cell culture plate (Corning, item number #3603), RPMI-1640 media (GE, cat #SH30027.01), Fetal Bovine Serum FBS (Thermo Fisher, cat #10099-141), CellTiter-Glo® Luminescent Cell Viability Assay Kit (Promega, cat #G7572), PBS (Solarbio, cat #P1020), Trypsin (Thermo Fisher, cat #25200072), DMSO (Sigma, cat #D2650). • [Experimental procedure]: When resuscitating KM12 cells, the freezing tube was quickly shaken in a 37° C. water bath to melt within 1 minute. The thawed cell suspension was mixed uniformly with RPMI1640 medium containing 10% FBS, centrifuged at 1000 rpm for 5 minutes, and the supernatant discarded. 5 mL of complete medium (RPMI1640 medium with 10% FBS) was taken to resuspend the cell pellets, charged into a cell culture flask with a bottom area of 25 cm^2, and incubated in a cell incubator at 37° C., 95% humidity and 5% CO2. Cells were allowed to passage when the cell confluence rate reached about 80%. For cell passage, the old medium was discarded, and the cells were washed twice with PBS, and 0.5 mL trypsin was added to digest the cells. Upon dispersing into single cells and exfoliating from the bottom of the cell culture flask, 4.5 mL of new complete medium was added to terminate the digestion. After pipetting the cell suspension evenly, 1/5 of the cell suspension was kept and added with 4 mL of new complete medium, and after pipetting evenly, the cell flask was placed in the cell incubator for further culturing. Cell plating was performed when the cell confluence rate reached about 80% again. For cell plating, 1/5 of the cell suspension was kept for further culturing as in the cell passage method, and the remaining 4/5 of the cell suspension was placed in a 15 mL centrifuge tube, detected for cell viability by Trypan blue exclusion method to ensure that cell viability was above 90%. A cell suspension with a density of 3.33×10^4 viable cells/mL was prepared with complete medium, and 90 μL of such cell suspension was added to a 96-well cell culture plate to obtain a cell density of 3000 viable cells/mL in the cell culture plate. A control group containing no cells, no compound and only complete medium (i.e. culture medium control) and a control group containing no compound but containing cells (i.e. cell control) were set. The cell plate was placed in a cell incubator overnight.
The 10 mM compound stock solution in DMSO was first serially diluted with DMSO at a dilution factor of 3.16 times, to obtain 9 concentrations, and the 10th concentration was set as DMSO control without compound. Then, PBS was used to dilute the DMSO solutions of compounds of different concentrations, at a dilution factor of 100 times, so that the DMSO concentration in the compound solution of each concentration was 1%. Finally, 10 μL of each of the above solutions was added to the corresponding cell culture plate, so that the initial compound concentration was 10 μM, with the remaining concentrations being successively diluted at a dilution factor of 3.16 times, and the DMSO content in the cell culture plate was 0.1%.
The cell plate was placed in a cell incubator and cultured for 72 hours. For endpoint detection, the CellTiter-Glo reagent was melted, and the cell plate was moved to room temperature to equilibrate for 30 minutes, added with 100 μL of CellTiter-Glo for each well, and shaken on an orbital shaker for 5 minutes to fully lyse the cells. […]
On the technique in general: ATP-based viability assays read luminescence as a measure of living cells.

[1] abbreviates: Homo sapiens, KM12, 72 h, Table 1, 72 hours, read-out: KM-12, IC50.
Setting [2] is: Homo sapiens, KM12, Table 1-2, separate test, read-out: KM-12, IC50.
[3] abbreviates: Homo sapiens, KM12, Table 1-1, separate test, read-out: KM-12, IC50.
[4] abbreviates: Homo sapiens, KM12, Table 9, read-out: KM12 cell proliferation inhibitory activity (IC50).

On to `Cn1ncc2cc(Oc3ccc(NC(=O)c4ccc(C(F)(F)F)n(-c5ccc(F)cc5)c4=O)cc3F)c(-c3cn[nH]c3)cc21` [Example 1, N-(3-fluoro-4-(1-methyl-6-(1H-pyrazol-4-yl)-1H-indazol-5-yloxy)phenyl)-1-(4-fluorophenyl)-6-trifluoromethyl-2-oxo-1,2-dihydmpyridine-3-carboxamide monomethanesulfonate], for which the IC50 under setting [1] is 15.6 nM.

In the case of `Cn1ncc2cc(Oc3ccc(NC(=O)c4ccc(C5CC5)n(-c5ccc(F)cc5)c4=O)cc3F)c(-c3cn[nH]c3)cc21` [Example 2, N-(3-fluoro-4-(1-methyl-6-(1H-pyrazol-4-yl)-1H-indazol-5-yloxy)phenyl)-1-(4-fluorophenyl)-6-cyclopropyl-2-oxo-1,2-dihydmpyridine-3-carboxamide], under setting [1], the IC50 was 9.1 nM.

Take `CCn1ncc2cc(Oc3ccc(NC(=O)c4ccc(C)n(-c5ccc(F)cc5)c4=O)cc3F)c(-c3cn[nH]c3)cc21` [Example 3, N-(3-fluoro-4-(1-ethyl-6-(1H-pyrazol-4-yl)-1H-indazol-5-yloxy)phenyl)-1-(4-fluorophenyl)-6-methyl-2-oxo-1,2-dihydmpyridine-3-carboxamide]: the IC50 under setting [1] was 16.7 nM.

Consider `Cc1ccc(C(=O)Nc2ccc(Oc3cc4cnn(C(C)C)c4cc3-c3cn[nH]c3)c(F)c2)c(=O)n1-c1ccc(F)cc1` [Example 4, N-(3-fluoro-4-(1-isopropyl-6-(1H-pyrazol-4-yl)-1H-indazol-5-yloxy)phenyl)-1-(4-fluorophenyl)-6-methyl-2-oxo-1,2-dihydmpyridine-3-carboxamide], for which the IC50 under setting [1] was found to be 31 nM.

`CCc1ccc(C(=O)Nc2ccc(Oc3cc4cnn(C)c4cc3-c3cn[nH]c3)c(F)c2)c(=O)n1-c1ccc(F)cc1` [Example 5, N-(3-fluoro-4-(1-methyl-6-(1H-pyrazol-4-yl)-1H-indazol-5-yloxy)phenyl)-1-(4-fluorophenyl)-6-ethyl-2-oxo-1,2-dihydropyridine-3-carboxamide]: under setting [1], the IC50 came to 5.1 nM.

With `CC(C)c1ccc(C(=O)Nc2ccc(Oc3cc4cnn(C)c4cc3-c3cn[nH]c3)c(F)c2)c(=O)n1-c1ccc(F)cc1` [Example 6, N-(3-fluoro-4-(1-methyl-6-(1H-pyrazol-4-yl)-1H-indazol-5-yloxy)phenyl)-1-(4-fluorophenyl)-6-isopropyl-2-oxo-1,2-dihydropyridine-3-carboxamide], under setting [1], the IC50 amounted to 6.3 nM.

For `CSc1ccc(C(=O)Nc2ccc(Oc3cc4cnn(C)c4cc3-c3cn[nH]c3)c(F)c2)c(=O)n1-c1ccc(F)cc1` [Example 11, N-(3-fluoro-4-(1-methyl-6-(1H-pyrazol-4-yl)-1H-indazol-5-yloxy)phenyl)-1-(4-fluorophenyl)-6-methylthio-2-oxo-1,2-dihydropyidine-3-carboxamide], under setting [2], the IC50 turned out to be 35 nM.

In the case of `COc1ccc(C(=O)Nc2ccc(Oc3cc4cnn(C)c4cc3-c3cn[nH]c3)c(F)c2)c(=O)n1-c1ccc(F)cc1` [Example 12, N-(3-fluoro-4-(1-methyl-6-(1H-pyrazol-4-yl)-1H-indazol-5-yloxy)phenyl)-1-(4-fluorophenyl)-6-methoxy-2-oxo-1,2-dihydropyridine-3-carboxamide], the IC50 under setting [3] is 16 nM.

With `CCOc1ccc(C(=O)Nc2ccc(Oc3cc4cnn(C)c4cc3-c3cn[nH]c3)c(F)c2)c(=O)n1-c1ccc(F)cc1` [Example 14, N-(3-fluoro-4-(1-methyl-6-(1H-pyrazol-4-yl)-1H-indazol-5-yloxy)phenyl)-1-(4-fluorophenyl)-6-ethoxy-2-oxo-12-dihydropyridine-3-carboxamide], the IC50 under setting [2] stood at 24 nM.

Take `Cn1ncc2cc(Oc3ccc(NC(=O)c4ccc(OC5CC5)n(-c5ccc(F)cc5)c4=O)cc3F)c(-c3cn[nH]c3)cc21` [Example 15, N-(3-fluoro-4-(1-methyl-6-(1H-pyrazol-4-yl)-1H-indazol-5-yloxy)phenyl)-1-(4-fluorophenyl)-6-cyclopropoxy-2-oxo-1,2-dihydropyridine-3-carboxamide]: under setting [2], the IC50 amounted to 17 nM.

On to `CC(C)Oc1ccc(C(=O)Nc2ccc(Oc3cc4cnn(C)c4cc3-c3cn[nH]c3)c(F)c2)c(=O)n1-c1ccc(F)cc1` [Example 16, N-(3-fluoro-4-(1-methyl-6-(1H-pyrazol-4-yl)-1H-indazol-5-yloxy)phenyl)-1-(4-fluorophenyl)-6-isopropoxy-2-oxo-1,2-dihydropyridine-3-carboxamide], for which, under setting [2], the IC50 came out at 7 nM.

With `CCc1ccc(C(=O)Nc2ccc(Oc3cc4cnn(CC)c4cc3-c3cn[nH]c3)c(F)c2)c(=O)n1-c1ccc(F)cc1` [Example 18, N-(3-fluoro-4-(1-ethyl-6-(1H-pyrazol-4-yl)-1H-indazol-5-yloxy)phenyl)-1-(4-fluorophenyl)-6-ethyl-2-oxo-1,2-dihydropyridine-3-carboxamide], under setting [3], the IC50 was 32 nM.

For the molecule `CCn1ncc2cc(Oc3ccc(NC(=O)c4ccc(C5CC5)n(-c5ccc(F)cc5)c4=O)cc3F)c(-c3cn[nH]c3)cc21` [Example 19, N-(3-fluoro-4-(1-ethyl-6-(1H-pyrazol-4-yl)-1H-indazol-5-yloxy)phenyl)-1-(4-fluorophenyl)-6-cyclopropyl-2-oxo-1,2-dihydropyridine-3-carboxamide], the IC50 under setting [3] was 32 nM.

Turning to `CCn1ncc2cc(Oc3ccc(NC(=O)c4ccc(OC)n(-c5ccc(F)cc5)c4=O)cc3F)c(-c3cn[nH]c3)cc21` [Example 23, N-(3-fluoro-4-(1-ethyl-6-(1H-pyrazol-4-yl)-1H-indazol-5-yloxy)phenyl)-1-(4-fluorophenyl)-6-methoxy-2-oxo-1,2-dihydropyridine-3-carboxamide], the IC50 under setting [3] came to 32 nM.

For the molecule `CCOc1ccc(C(=O)Nc2ccc(Oc3cc4cnn(CC)c4cc3-c3cn[nH]c3)c(F)c2)c(=O)n1-c1ccc(F)cc1` [Example 24, N-(3-fluoro-4-(1-ethyl-6-(1H-pyrazol-4-yl)-1H-indazol-5-yloxy)phenyl)-1-(4-fluorophenyl)-6-ethoxy-2-oxo-12-dihydropyridine-3-carboxamide], for the setting “Table 1-3, separate test, read-out: KM-12, IC50”, the IC50 came to 23 nM.

`CCn1ncc2cc(Oc3ccc(NC(=O)c4ccc(OC(C)C)n(-c5ccc(F)cc5)c4=O)cc3F)c(-c3cn[nH]c3)cc21` [Example 26, N-(3-fluoro-4-(1-ethyl-6-(1H-pyrazol-4-yl)-1H-indazol-5-yloxy)phenyl)-1-(4-fluorophenyl)-6-isopropoxy-2-oxo-1,2-dihydropyridine-3-carboxamide]: the IC50 (Homo sapiens, KM12, Table 1-3, separate test, read-out: KM-12, IC50) turned out to be 18 nM.

On to `COc1ccc(C(=O)Nc2ccc(Oc3cc4cnn5c4c(c3-c3cn[nH]c3)CC5)c(F)c2)c(=O)n1-c1ccc(F)cc1` [Example 28, N-(4-((5-(1H-pyrazol-4-yl)-6,7-dihydropyrrolo[3,2,1-hi]-indazol-4-yl)oxy)-3-fluorophenyl)-1-(4-fluorophenyl)-6-methoxy-2-oxo-1,2-dihydropyidine-3-carboxamide], for which the IC50 under setting [4] stood at 56 nM.

For `Cc1ccc(C(=O)Nc2ccc(Oc3cc4cnn5c4c(c3-c3cn[nH]c3)CC5)c(F)c2)c(=O)n1-c1ccc(F)cc1` [Example 31, N-(4-((5-(1H-pyrazol-4-yl)-6,7-dihydropyrrolo[3,2,1-hi]-indazol-4-yl)oxy)-3-fluorophenyl)-1-(4-fluorophenyl)-6-methyl-2-oxo-1,2-dihydropyridine-3-carboxamide], the IC50 under setting [4] was 71 nM.

Turning to `CCOc1ccc(C(=O)Nc2ccc(Oc3cc4cnn5c4c(c3-c3cn[nH]c3)CC5)c(F)c2)c(=O)n1-c1ccc(F)cc1` [Example 32, N-(4-((5-(1H-pyrazol-4-yl)-6,7-dihydropyrrolo[3,2,1-hi]-indazol-4-yl)oxy)-3-fluorophenyl)-6-ethoxy-1-(4-fluorophenyl)-2-oxo-12-dihydropyridine-3-carboxamide], the IC50 under setting [4] is 67 nM.

For the origin of these results see US11952364B2, “TRK inhibitors useful as anticancer drugs” (TYLIGAND BIOSCIENCE (SHANGHAI) LIMITED, priority 2018, dated 2024).
